Laboratory results as given in patent US20110263629A1, “AMIDES OF DIAZABICYCLOOCTANES AND USES THEREOF” (Targacept, Inc., priority 2008, published 2011).
Read-outs that look alike come from different tables or passages of the source.

Legend:
[1] = biological target: T1, rat α4β2 nAChR subtype (Rattus norvegicus, UniProt P09483+P12390); experiment: Radioligand binding ([3H]nicotine) at rat α4β2 nAChR, rat cortex membranes
T1 construct: Preparation of membranes from rat cortex; from tissue; host or cells: rat cerebral cortex membranes
T1 sequence (P09483 31-630): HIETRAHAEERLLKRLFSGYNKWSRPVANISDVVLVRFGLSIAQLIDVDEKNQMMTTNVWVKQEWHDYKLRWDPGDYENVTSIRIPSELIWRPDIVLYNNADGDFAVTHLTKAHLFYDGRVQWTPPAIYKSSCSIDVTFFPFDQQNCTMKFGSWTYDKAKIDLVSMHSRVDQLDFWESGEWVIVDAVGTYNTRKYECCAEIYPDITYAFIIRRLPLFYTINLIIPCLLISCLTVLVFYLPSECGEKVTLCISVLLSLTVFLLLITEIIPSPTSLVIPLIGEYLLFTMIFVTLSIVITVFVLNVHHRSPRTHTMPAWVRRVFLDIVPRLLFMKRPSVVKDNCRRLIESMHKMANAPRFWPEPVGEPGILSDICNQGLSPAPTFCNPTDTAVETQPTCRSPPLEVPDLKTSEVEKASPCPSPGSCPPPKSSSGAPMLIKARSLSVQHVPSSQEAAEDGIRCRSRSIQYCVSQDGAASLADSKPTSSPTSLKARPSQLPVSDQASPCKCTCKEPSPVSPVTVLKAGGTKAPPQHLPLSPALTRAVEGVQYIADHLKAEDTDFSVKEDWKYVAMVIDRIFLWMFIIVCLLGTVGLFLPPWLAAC
T1 sequence (P12390 25-500): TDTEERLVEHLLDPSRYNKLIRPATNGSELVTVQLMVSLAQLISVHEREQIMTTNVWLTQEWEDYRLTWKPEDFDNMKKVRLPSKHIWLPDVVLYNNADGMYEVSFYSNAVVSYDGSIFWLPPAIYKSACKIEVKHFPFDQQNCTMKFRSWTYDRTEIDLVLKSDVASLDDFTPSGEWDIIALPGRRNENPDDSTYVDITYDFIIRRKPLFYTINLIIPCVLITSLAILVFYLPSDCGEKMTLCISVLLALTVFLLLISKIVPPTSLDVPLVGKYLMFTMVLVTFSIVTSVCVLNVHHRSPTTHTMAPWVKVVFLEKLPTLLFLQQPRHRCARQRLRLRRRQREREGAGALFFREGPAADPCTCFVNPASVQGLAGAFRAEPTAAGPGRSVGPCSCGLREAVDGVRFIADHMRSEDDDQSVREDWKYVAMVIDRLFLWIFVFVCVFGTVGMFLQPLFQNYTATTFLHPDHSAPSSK
Procedure: (§1) Preparation of membranes from rat cortex: Rats (female, Sprague-Dawley), weighing 150-250 g, were maintained on a 12 h light/dark cycle and were allowed free access to water and food supplied by PMI Nutrition International, Inc. Animals were anesthetized with 70% CO2, and then decapitated. Brains were removed and placed on an ice-cold platform. The cerebral cortex was removed and placed in 20 volumes (weight:volume) of ice-cold preparative buffer (137 mM NaCl, 10.7 mM KCl, 5.8 mM KH2PO4, 8 mM Na2HPO4, 20 mM HEPES (free acid), 5 mM iodoacetamide, 1.6 mM EDTA, pH 7.4); PMSF, dissolved in methanol to a final concentration of 100 μM, was added and the suspension was homogenized by Polytron. The homogenate was centrifuged at 18,000×g for 20 min at 4° C. and the resulting pellet was re-suspended in 20 volumes of ice-cold water. After 60 min incubation on ice, a new pellet was collected by centrifugation at 18,000×g for 20 min at 4° C. The final pellet was re-suspended in 10 volumes of buffer and stored at −20° C.
(§2) On the day of the assay, the frozen membranes were thawed and spun at 48,000×g for 20 min. The supernatant was decanted and discarded. The pellet was resuspended in Dulbecco's phosphate buffered saline (PBS, Life Technologies) pH 7.4 and homogenized with the Polytron for 6 seconds. Protein concentrations were determined using a Pierce BCA Protein Assay Kit, with bovine serum albumin as the standard (Pierce Chemical Company, Rockford, Ill.).
(§3) Incubation was terminated by rapid filtration on a multi-manifold tissue harvester (Brandel, Gaithersburg, Md.) using GF/B filters presoaked in 0.33% polyethyleneimine (w/v) to reduce non-specific binding. Tissue was rinsed 3 times in PBS, pH 7.4. Scintillation fluid was added to filters containing the washed tissue and allowed to equilibrate. Filters were then counted to determine radioactivity bound to the membranes by liquid scintillation counting (2200CA Tri-Carb LSC, Packard Instruments, 50% efficiency or Wallac Trilux 1450 MicroBeta, 40% efficiency, Perkin Elmer).
(§4) Data were expressed as disintegrations per minute (DPMs). Within each assay, each point had 2-3 replicates. The replicates for each point were averaged and plotted against the log of the drug concentration. IC50, which is the concentration of the compound that produces 50% inhibition of binding, was determined by least squares non-linear regression. Ki values were calculated using the Cheng-Prussof equation (1973): […]

[2] = biological target: T2, human α4β2 nAChR subtype (Homo sapiens, UniProt P17787+P43681); experiment: Radioligand binding ([3H]nicotine) at human α4β2 nAChR, SH-EP1/human α4β2 clonal cell membranes
T2 construct: expressed in transfected cells; host or cells: SH-EP1 clonal cells expressing human α4β2
T2 sequence (P43681 29-627 limits assumed): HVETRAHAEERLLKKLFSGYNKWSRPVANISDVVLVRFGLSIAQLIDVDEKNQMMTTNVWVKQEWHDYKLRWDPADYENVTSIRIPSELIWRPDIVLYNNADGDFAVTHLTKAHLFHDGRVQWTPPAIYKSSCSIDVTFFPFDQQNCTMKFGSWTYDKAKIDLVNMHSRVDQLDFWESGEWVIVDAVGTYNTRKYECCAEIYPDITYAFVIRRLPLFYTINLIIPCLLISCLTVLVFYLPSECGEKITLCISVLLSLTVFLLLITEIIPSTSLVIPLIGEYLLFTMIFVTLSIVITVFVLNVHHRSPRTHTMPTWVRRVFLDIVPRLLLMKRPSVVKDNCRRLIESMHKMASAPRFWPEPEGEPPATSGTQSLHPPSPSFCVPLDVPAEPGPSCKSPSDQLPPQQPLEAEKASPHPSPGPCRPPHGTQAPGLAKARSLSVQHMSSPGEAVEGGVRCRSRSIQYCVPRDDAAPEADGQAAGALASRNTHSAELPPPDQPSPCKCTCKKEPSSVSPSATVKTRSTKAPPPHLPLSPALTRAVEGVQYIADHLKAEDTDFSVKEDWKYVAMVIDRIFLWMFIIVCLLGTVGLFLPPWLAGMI
T2 sequence (P17787 26-502): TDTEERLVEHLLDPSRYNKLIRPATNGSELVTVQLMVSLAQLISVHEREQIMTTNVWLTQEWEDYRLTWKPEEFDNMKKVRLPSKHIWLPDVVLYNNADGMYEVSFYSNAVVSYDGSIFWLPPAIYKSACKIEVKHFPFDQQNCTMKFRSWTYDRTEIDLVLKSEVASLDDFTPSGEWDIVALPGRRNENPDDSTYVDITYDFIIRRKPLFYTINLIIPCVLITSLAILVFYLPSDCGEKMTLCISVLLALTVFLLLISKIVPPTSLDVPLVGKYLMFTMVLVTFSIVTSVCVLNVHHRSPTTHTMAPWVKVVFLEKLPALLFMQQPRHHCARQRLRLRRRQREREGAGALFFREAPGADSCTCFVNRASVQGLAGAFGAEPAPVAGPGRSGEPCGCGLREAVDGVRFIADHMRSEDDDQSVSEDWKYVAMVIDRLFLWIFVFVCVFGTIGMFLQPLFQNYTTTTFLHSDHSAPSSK
Procedure: Preparation of membranes from SH-EP1/human α4β2 clonal cells: Cell pellets from 40 150 mm culture dishes were pooled, and homogenized by Polytron (Kinematica GmbH, Switzerland) in 20 milliliters of ice-cold preparative buffer. The homogenate was centrifuged at 48,000 g for 20 minutes at 4° C. The resulting pellet was re-suspended in 20 mL of ice-cold preparative buffer and stored at −20° C.
as §2, §3, §4

[3] = biological target: T3, rat α7 nAChR subtype (Rattus norvegicus, UniProt Q05941); experiment: Radioligand binding ([3H]MLA) at α7 nAChR, rat hippocampus membranes
T3 construct: Preparation of membranes from rat hippocampus; from tissue; host or cells: rat hippocampus membranes
T3 sequence (Q05941 23-502): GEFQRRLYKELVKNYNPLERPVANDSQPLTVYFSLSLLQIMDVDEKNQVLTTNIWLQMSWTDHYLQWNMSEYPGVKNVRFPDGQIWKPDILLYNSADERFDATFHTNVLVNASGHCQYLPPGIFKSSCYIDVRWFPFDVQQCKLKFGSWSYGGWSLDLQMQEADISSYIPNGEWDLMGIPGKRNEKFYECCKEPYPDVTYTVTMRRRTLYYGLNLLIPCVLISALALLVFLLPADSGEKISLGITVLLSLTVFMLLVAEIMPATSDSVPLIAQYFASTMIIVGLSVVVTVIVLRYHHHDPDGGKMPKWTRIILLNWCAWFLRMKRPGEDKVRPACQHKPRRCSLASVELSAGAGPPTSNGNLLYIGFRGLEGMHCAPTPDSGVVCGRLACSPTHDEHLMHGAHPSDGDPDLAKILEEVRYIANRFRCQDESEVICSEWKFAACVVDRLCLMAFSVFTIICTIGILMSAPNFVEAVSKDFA
Procedure: as §1, with “from rat hippocampus: Rats (female,” for “from rat cortex: Rats (female,”, “70% CO2, then decapitated.” for “70% CO2, and then decapitated.”, “platform. The hippocampus was removed” for “platform. The cerebral cortex was removed”, “placed in 10 volumes (weight:volume)” for “placed in 20 volumes (weight:volume)”, “and the tissue suspension was” for “and the suspension was”, “re-suspended in 10 volumes of” for “re-suspended in 20 volumes of”
On the day of the assay, tissue was thawed, centrifuged at 18,000×g for 20 min, and then re-suspended in ice-cold PBS (Dulbecco's Phosphate Buffered Saline, 138 mM NaCl, 2.67 mM KCl, 1.47 mM KH2PO4, 8.1 mM Na2HPO4, 0.9 mM CaCl2, 0.5 mM MgCl2, Invitrogen/Gibco, pH 7.4) to a final concentration of approximately 2 mg protein/mL. Protein was determined by the method of Lowry et al., J. Biol. Chem. 193: 265 (1951), herein incorporated by reference, using bovine serum albumin as the standard.
Assay: The binding of [^3H]MLA was measured using a modification of the methods of Davies et al., Neuropharmacol. 38: 679 (1999), herein incorporated by reference. [^3H]MLA (Specific Activity=25-35 Ci/mmol) was obtained from Tocris. The binding of [^3H]MLA was determined using a 2 h incubation at 21° C. Incubations were conducted in 48-well micro-titre plates and contained about 200 μg of protein per well in a final incubation volume of 300 μL. The incubation buffer was PBS and the final concentration of [^3H]MLA was 5 nM. The binding reaction was terminated by filtration of the protein containing bound ligand onto glass fiber filters (GF/B, Brandel) using a Brandel Tissue Harvester at room temperature. Filters were soaked in de-ionized water containing 0.33% polyethyleneimine to reduce non-specific binding. Each filter was washed with PBS (3×1 mL) at room temperature. Non-specific binding was determined by inclusion of 50 μM non-radioactive MLA in selected wells.
The inhibition of [^3H]MLA binding by test compounds was determined by including seven different concentrations of the test compound in selected wells. Each concentration was replicated in triplicate. IC50 values were estimated as the concentration of compound that inhibited 50 percent of specific [^3H]MLA binding. Inhibition constants (Ki values), reported in nM, were calculated from the IC50 values using the method of Cheng et al., Biochem. Pharmacol. 22: 3099-3108 (1973), herein incorporated by reference.

[4] = rat hippocampus membranes, 5 nM [3H]MLA, read-out: Rat α7 Ki
[5] = SH-EP1/human α4β2 cell membranes, 5 nM [3H]nicotine, read-out: Human α4β2 Ki

Row | Structure (SMILES) | Ki ([1]; read-out: Rat α4β2 Ki) | Ki ([2]; read-out: Human α4β2 Ki) | further results
1 | CCCC(=O)N1C[C@@H]2CN[C@@H](C2)C1 | 18 nM | 18 nM | Ki [3]: 160 nM
2 | O=C(C1CCC1)N1C[C@@H]2CNC[C@H]1C2 | – | 23 nM | –
3 | CCCC(=O)N1C[C@@H]2CNC[C@H]1C2 | – | 34 nM | –
4 | CCOC(=O)N1C[C@@H]2CNC[C@H]1C2 | 32 nM | 78 nM | Ki [3]: > 10000 nM
5 | COc1ccc(S(=O)(=O)N2C[C@@H]3CN[C@@H](C3)C2)cc1 | 750 nM | 580 nM | –
6 | CC(C)C(=O)N1C[C@@H]2CNC[C@H]1C2 | – | 590 nM | –
7 | O=C(CCF)N1C[C@H]2CNC[C@@H]1C2 | – | 2400 nM | Ki [3, 4]: 2300 nM
8 | O=C(C1CC1)C1N[C@H]2CNC[C@@H]1C2 (some centres unmarked) | – | 480 nM | Ki [3]: 1300 nM
9 | CS(=O)(=O)N1C[C@@H]2CN[C@@H](C2)C1 | – | 2300 nM | –
10 | CC1(C)CC1C(=O)N1C[C@@H]2CN[C@@H](C2)C1 (some centres unmarked) | 49 nM | 31 nM | –
11 | O=C(Oc1ccc(F)cc1)N1C[C@H]2CN[C@H](C2)C1 | – | – | Ki [1]: 45 nM; Ki [2]: 310 nM
12 | O=C(C1CC1)N1C[C@H]2CN[C@H](C2)C1 | 0.5 nM | 0.8 nM | Ki [3, 4]: 190 nM
13 | COC(=O)N1C[C@@H]2CNC[C@H]1C2 | 40 nM | 86 nM | –
14 | O=C([C@H]1C[C@@H]1F)N1C[C@@H]2CNC[C@H]1C2 | – | 11 nM | –
15 | COC(=O)N1CC2CNC(C2)C1 (centres unmarked) | 6.8 nM | 12 nM | –
16 | COC(=O)N1C[C@H]2CN[C@H](C2)C1 | 4.8 nM | 7.9 nM | –
17 | COCCOC(=O)N1C[C@H]2CN[C@H](C2)C1 | 74 nM | – | Ki [2, 5]: 310 nM
18 | CCC(=O)N1C[C@@H]2CN[C@@H](C2)C1 | 30 nM | 24 nM | Ki [3]: 2000 nM
19 | O=C(C1CC12CCC2)N1C[C@@H]2CN[C@@H](C2)C1 (some centres unmarked) | 3 nM | 2.3 nM | –
20 | CCC(=O)N1C[C@@H]2CNC[C@H]1C2 | – | 27 nM | –
21 | CCCCC(=O)N1C[C@@H]2CN[C@@H](C2)C1 | 36 nM | 77 nM | –
22 | COC(=O)N1C[C@H]2CNC[C@@H]1C2 | – | – | Ki [2, 5]: 5700 nM
23 | O=C(Nc1ccc(F)cc1)N1C[C@@H]2CN[C@@H](C2)C1 | 2200 nM | > 10000 nM | –
24 | O=C(CC(F)(F)F)N1C[C@@H]2CN[C@@H](C2)C1 | – | 73 nM | Ki ([1]; rat cortex membranes, 5 nM [3H]nicotine, read-out: Rat α4β2 Ki): 110 nM
25 | CCCCS(=O)(=O)N1C[C@@H]2CN[C@@H](C2)C1 | – | 2100 nM | –
26 | CC1(C)C(C(=O)N2CC3CNC(C3)C2)C1(C)C (centres unmarked) | – | 8600 nM | –
